Laboratory results from patent publication US10537567B2, “Kinase inhibitors for treatment of disease” (BioAxone BioSciences, Inc., priority 2017, dated 2020).

Assay: Hyperemia / ocular tolerability testing in Dutch-Belted rabbits
Type: in vivo, Dutch-Belted rabbits (Oryctolagus cuniculus)
Description: To test for hyperemia, the rabbit is a standard species used in ocular tolerability studies based upon historical data and FDA requirements. For this study, four (4) Dutch-Belted rabbits (Oryctolagus cuniculus) were manually restrained to facilitate topical dosing followed by ocular examinations, and IOP measurements. Prior to placement on study, each animal underwent an ophthalmic examination (slit-lamp biomicroscopy, indirect ophthalmoscopy). Ocular findings were scored according to a modified McDonald-Shadduck Scoring System. […] Test and control articles were dosed in the morning at approximately the same time every day (˜8 am±2 hours). Animals were observed within their cages once daily throughout the study period. […] Any abnormal observation was reported to the Study Director. Ocular findings were scored according to a modified McDonald-Shadduck Scoring System. The scoring system 0=normal and numbers of 1-4 score mild to severe.
(Table 3). Thus, these ROCK inhibitors have promise for therapeutic use in treating eye pathologies.

[1] = Day 3, 1% topical once daily, modified McDonald-Shadduck score, 0=normal, 1-4 mild to severe, cells = rabbit 1/2, OD/OS

Structure (SMILES): C[C@H](N)C1CCN(S(=O)(=O)c2cccc3cnccc23)CC1 [BA-1076]
- Aqueous Flare [1]: 0
- Cellular Flare [1]: 0
- Conjunctival Congestion [1]: 0
- Conjunctival Discharge [1]: 0
- Conjunctival Swelling [1]: 0
- Cornea [1]: 0
- Iris Involvement [1]: 0
- Pannus [1]: 0
- Pupillary Response [1]: 0
- Surface Area of Cornea Involvement [1]: 0
- Hyperemia / adverse ocular findings (daily repeat topical dosing, 1%, three days): did not cause hyperemia
